Type in all cases: cell-based
Assay [1] concerns P. aeruginosa (ATCC®9027™). As to the kind of experiment: Microbial challenge testing in alginogel with GOX+LPO. The following applies: for reduction in absolute P. aeruginosa counts compared to guaiacol in the same concentration: alginogel with GOX+LPO, enhancer 0.0005%; for antimicrobial activity of enhancing candidate only against P. aeruginosa: alginogel without enzymes, highest concentration tested; for reduction in absolute P. aeruginosa counts compared to reference (enzymes only): alginogel, 0.0075% GOX+LPO. Here is the method:
To determine the ability of an antimicrobial agent to elicit an antimicrobial preserving efficacy in a gel environment, a microbiological challenge test can be performed. Here, the antimicrobial agent is a combination of the natural enzymes GOX+LPO. […] Microbial challenge testing was performed according to the method described in the European Pharmacopoeia current version chapter 5.1.3 ‘Efficacy of antimicrobial preservation’, but with adapted time points (0, 10, 20, 30, 40, 50, 60, 70 and 80 min instead of 0, 2, 7, 14 and 28 days). In brief, for every enhancing agent to be evaluated, a lab-scale alginogel (based on the Flaminal® formulation, but without the original enhancer guaiacol) including 0.0075% GOX+LPO (1:1) was prepared according to standard practices. Enhancing agents were added to the alginogel in a final concentration ranging from 0.01 to 0,00025% (v/w). As a reference, an alginogel including 0.0075% GOX+LPO (1:1) without the addition of any enhancing agent was included (designated as: enzymes only). As a control, an alginogel without both GOX+LPO (1:1) enzyme solution and enhancing agent (designated as: empty gel) as well as an alginogel only containing the enhancing agent only (designated as: enhancing candidate only) were included. After preparation, a homogenous sample of 10 g was transferred into a 50 ml conical tube for each alginogel to be evaluated and microorganism to be tested. For each test microorganism, including S. aureus (ATCC®6538™), P. aeruginosa (ATCC®9027™), C. albicans (ATCC®10231™) and A. niger (ATCC®16404 ™), a microbial suspension of about 10^8 CFU/ml was prepared in sterile diluent (buffered sodium chloride-peptone solution). Then, the 50 ml conical tubes containing the alginogel samples to be evaluated were inoculated with 100 μl of the designated inoculum. At the start (time point 0) and after 0, 10, 20, 30, 40, 50, 60, 70 and 80 min, the number of viable microorganisms per gram product (expressed as CFU/g) was determined by transferring a sample of 0.5 g of the product into a 15 ml conical tube containing 4.5 ml of sterile diluent and applying general dilution and plate count techniques. For each combination evaluated, this test was repeated at least 1-3 times. The collected data were further analyzed in MS Excel. Mean absolute counts (expressed as log CFU/g) were visualized in a graph.

The test system of assay [2] is Pseudomonas aeruginosa ATCC®9027™. Kind of assay: Absolute microbial counts in function of enzyme solution concentration. The following applies: for reduction in absolute P. aeruginosa counts compared to reference and guaiacol solution: 0.005%-0.0000391% (v/v) GOX+LPO. From the text:
(§1) Absolute microbial counts in function of concentration of the antimicrobial agent tested are useful to monitor the bactericidal and fungicidal efficacy of that agent.
(§2) To determine the absolute number of live microorganisms in function of different enzyme solution concentrations tested, a classical broth microdilution assay combined with standard CFU enumeration techniques was used to determine the susceptibility of a series of microbes commonly detected in infected wounds, including (a) the Gram-positive bacterium Staphylococcus aureus ATCC® 6538™ (results shown below), (b) the Gram-negative bacterium Pseudomonas aeruginosa ATCC®9027™ (results shown below), (c) the yeast Candida albicans ATCC®10231™ (results shown below), and (d) the fungus Aspergillus niger ATCC®16404™ (results shown below). In brief, the broth microdilution assay was set up as previously described (see 2.1). After incubation, the absolute microbial count at the MIC and following higher concentrations (MICx2, MICx4, and so on) was determined using standard CFU enumeration techniques. For each combination evaluated, this test was repeated at least 5 times. The collected data were further analyzed in MS Excel and expressed as log CFU/ml. Mean results were plotted in function of enzyme solution concentration.

Assay [3] concerns Aspergillus niger ATCC®16404™. Described as above. The following applies: 0.005%-0.000156% (v/v) GOX+LPO.
From the text: as §1, §2

Assay [4] has as its system Staphylococcus aureus ATCC® 6538™. Kind of assay: MIC determination, broth microdilution, GOX+LPO with potentiator candidate. The following applies: S. aureus. Here is the method:
(§3) The minimum inhibitory concentration (MIC) is defined as the lowest concentration of an antimicrobial agent that results in a complete inhibition of microbial growth (determined via visual evaluation or absorbance measurements) after overnight incubation. This endpoint measurement is used to define the microbial susceptibility towards an antimicrobial agent. Here, the antimicrobial agent is a combination of the natural enzymes GOX+LPO.
(§4) To determine the MIC of the described combinations, a classical broth microdilution assay was used to determine the susceptibility of a series of microbes commonly detected in infected wounds, including (a) the Gram-positive bacterium Staphylococcus aureus ATCC® 6538™ (results shown below), (b) the Gram-negative bacterium Pseudomonas aeruginosa ATCC®9027™ (results shown below), (c) the yeast Candida albicans ATCC®10231™ (results shown below), and (d) the fungus Aspergillus niger ATCC®16404™ (results shown below). In brief, a […] serial dilution of the enzymatic GOX+LPO solution was prepared in a transparent, flat-bottomed 96-well test plate with final concentrations ranging from 0.005 to 0.00000977% (v/v). To each well, a fixed volume of the enzymatic substrate containing 3,3% (w/v) glucose and 0,084% (w/v) potassium iodide, as well as the microbial inoculum with an OD600 of 0.1 was added. In the event the enzyme combination was evaluated in the presence of a potentiator candidate, the latter was added together with the enzymatic substrate in a final concentration ranging from 100 to 0,00125% (v/v). For each combination evaluated, a blank (no addition of microbial inoculum) was included. Positive (inoculum only) and negative (background solution only) were included to evaluate the performance of the test and to select the enzymatic GOX+LPO concentration at which no microbial growth is detected (i.e., absorbance equal to that of the background solution only). Then, the 96-well test plate was incubated for 24 hours at 37° C. (S. aureus, P. aeruginosa and C. albicans) or 25° C. (A. niger). After incubation, the absorbance of each well was measured using a plate spectrophotometer (Spectramax ID3, Molecular Devices). For each combination evaluated, this test was repeated at least 5 times. The collected data were further analyzed in MS Excel. Mean absorbance data were visualized in a table format in which the MIC was highlighted.
Background: Dilution methods test growth across graded concentrations, often in twofold steps.

Assay [5] concerns Pseudomonas aeruginosa ATCC®9027™. The description is as above. The following applies: P. aeruginosa. Here is the method: as §3, §4
In assay [6] the test system is Aspergillus niger ATCC®16404™. Described as above. To be noted: A. niger. The protocol: as §3, §4
Setting [7] is: enhancer 0,1%, 0,005%-0.000625% (v/v) GOX+LPO.
Where [8] appears, read: enhancer 1%, 0,005%-0.000156% (v/v) GOX+LPO.

For `O=C(O)[C@@H]1CCCN1` [Proline, proline], the “reduction in absolute P. aeruginosa counts compared to guaiacol in the same concentration” value in assay [1] is on record as “faster complete reduction”. Moreover, in assay [1], the “antimicrobial activity of enhancing candidate only against P. aeruginosa” value (shortened to “antimicrobial activity … against P. aeruginosa”) is “no antimicrobial activity”. The “reduction in absolute P. aeruginosa counts compared to reference (enzymes only)” value in assay [1] (enhancer 0.00125-0.0005%) is “faster complete reduction”; in assay [1] (enhancer 0.0025%) it was “immediate entire reduction”. In addition, the “reduction in absolute P. aeruginosa counts compared to reference and guaiacol solution” value in assay [2] (enhancer 0.0025-0.00125%) and in assay [2] (enhancer 0.01-0.001%) was “stronger reduction” each time. Besides, in assay [3] (enhancer 1-0.01%), the “reduction in absolute A. niger counts compared to reference” value (“reduction in absolute A. niger counts” below) was “stronger reduction”. The “MIC: GOX+LPO enzyme solution needed to completely inhibit growth” value (“MIC … to completely inhibit growth” for short) in assay [4] (enhancer 0.01%) is on record as 0.0000195 % (v/v); in assay [4] (enhancer 10%), 0.0000391 % (v/v); in assay [5] (enhancer 0.0025-0.00125%), 0.000625 % (v/v); in assay [5] (enhancer 0.01-0.005%), 0.000625 % (v/v); in assay [6] (enhancer 1%-0.01%), 0.000156 % (v/v). Further, the “increase in MIC compared to reference or guaiacol solution” value in assay [4] (enhancer 0.01%) is on record as 4 ×; in assay [4] (enhancer 10%), 2 ×; in assay [5] (enhancer 0.0025-0.00125%) it was 2 ×; in assay [5] (enhancer 0.01-0.005%), 2 ×. For the same compound, the “increase in MIC compared to reference” value in assay [6] (enhancer 1%-0.01%) was found to be 2 ×.
Consider `CC[C@H](C)[C@H](N)C(=O)O` [Isoleucine, isoleucine], for which the “reduction in absolute P. aeruginosa counts compared to guaiacol in the same concentration” value in assay [1] is “faster complete reduction”. Moreover, the “antimicrobial activity … against P. aeruginosa” value in assay [1] is on record as “no antimicrobial activity”. For the same compound, the “reduction in absolute P. aeruginosa counts compared to reference (enzymes only)” value is “faster complete reduction” in assay [1] (enhancer 0.00125-0.0005%) and “immediate entire reduction” in assay [1] (enhancer 0.0025%). Also, the “reduction in absolute P. aeruginosa counts compared to reference” value in assay [2] (setting [7]) and in assay [2] (setting [8]) was “stronger reduction” in each case. Further, the “reduction in absolute A. niger counts” value in assay [3] (enhancer 1-0.005%) is listed as “stronger reduction”. For the same compound, the “MIC … to completely inhibit growth” value was 0.0000391 % (v/v) in assay [4] (enhancer 0.0025% to 0.00125%); 0.0000391 % (v/v) in assay [4] (enhancer 0.5% to 0.005%); 0.000625 % (v/v) in assay [5] (enhancer 0,1%); 0.000156 % (v/v) in assay [5] (enhancer 1%); 0.000156 % (v/v) in assay [6] (enhancer 1%-0.005%). Besides, the “increase in MIC compared to reference or guaiacol solution” value in assay [4] (enhancer 0.0025% to 0.00125%) and in assay [4] (enhancer 0.5% to 0.005%) was 2 × each time. Moreover, the “increase in MIC compared to reference” value is 2 × in assay [5] (enhancer 0,1%), 8 × in assay [5] (enhancer 1%) and 2 × in assay [6] (enhancer 1%-0.005%).
Consider `C[C@@H](O)[C@H](N)C(=O)O` [Threonine, threonine], for which, in assay [1], the “reduction in absolute P. aeruginosa counts compared to guaiacol in the same concentration” value is “faster complete reduction”. In addition, the “antimicrobial activity … against P. aeruginosa” value in assay [1] was “no antimicrobial activity”. Also, the “reduction in absolute P. aeruginosa counts compared to reference (enzymes only)” value is given as “faster complete reduction” in assay [1] (enhancer 0.00125-0.0005%) and “immediate entire reduction” in assay [1] (enhancer 0.0025%). Besides, the “reduction in absolute P. aeruginosa counts compared to reference” value in assay [2] (setting [7]) and in assay [2] (setting [8]) was “stronger reduction” throughout. Further, in assay [3] (enhancer 1-0.01%), the “reduction in absolute A. niger counts” value was “stronger reduction”. The “MIC … to completely inhibit growth” value is 0.0000391 % (v/v) in assay [4] (enhancer 0.01%); 0.0000195 % (v/v) in assay [4] (enhancer 2%); 0.000625 % (v/v) in assay [5] (enhancer 0,1%); 0.000156 % (v/v) in assay [5] (enhancer 1%); 0.000156 % (v/v) in assay [6] (enhancer 1%-0.01%). Also, the entries for the “increase in MIC compared to reference or guaiacol solution” value in assay [4] (enhancer 0.01%) and in assay [4] (enhancer 2%) were 2 × and 4 ×, respectively. Also, the “increase in MIC compared to reference” value in assay [5] (enhancer 0,1%) was 2 ×; in assay [5] (enhancer 1%), 8 ×; in assay [6] (enhancer 1%-0.01%), 2 ×.

(Values after patent publication US20260273028A1, “PEROXIDASE COMPOSITIONS CONTAINING IMPROVED ENHANCING AGENTS” (FLEN HEALTH PHARMA NV, priority 2022, published 2026).)
